Laboratory results from US20250325793A1, “INTRACALVARIOSSEOUS DRUG ADMINISTRATION DEVICE FOR DELIVERING DRUG BY BYPASSING BLOOD-BRAIN BARRIER” (GACHON UNIVERSITY OF INDUSTRY-ACADEMIC COOPERATION …, priority 2023, published 2025).
Where a name gives a salt, the structure may show the parent alone.

Columns and labels:
[1] = Plasma, brain interstitial fluid (microdialysis) and whole-brain drug levels after intravenous (IV) and intracalvariosseous (ICO) administration; format: in vivo, rat; conditions: for brain-to-plasma ratio (Kp), ICO administration group relative to IV administration group: at 24 hours after administration; for brain-to-plasma ratio (Kp), ICO administration group relative to IV administration group / Cbr (brain drug concentration), ICO administration group relative to IV administration group: fold higher in ICO (5 mg/kg) than IV (0.5 mg/kg); for AUCISF of the ICO administration group compared with the IV administration group: brain interstitial fluid (microdialysis, right hippocampus); for AUCplasma of the ICO administration group compared with the IV administration group: rat plasma; for Cbr (brain drug concentration), ICO administration group relative to IV administration group: whole brain at 24 hours after administration
Description: The experiment was performed with 5-week-old male rats weighing […]. To ensure statistical independence, only male rats were used in each experiment.
Eight rats were randomly assigned to the IV and ICO administration groups for each compound and were administered continuously from the next day (n=4).
In order to perform the experiment, the drug administration device of the present disclosure should be installed on the rats in the ICO administration group, and a guide cannula for a microdialysis probe for measuring the concentration of drugs in the brain should be installed on the rats in both the ICO administration group and the IV administration group.
As illustrated in FIG. 9 and FIG. 10, the drug administration device was installed on the left side of the skull of the rats in the ICO administration group, and the guide cannula was installed on the right side, while only the guide cannula was implanted in the skull of the IV administration group.
Then, in order to implant the microdialysis guide cannula, the rats in the ICO and IV administration groups were anesthetized with isoflurane, and a small hole was drilled in the skull, and the guide cannula was inserted into the right hippocampus (see FIGS. 9 and 10). The inserted guide cannula was fixed with dental cement, and the skin wound was sutured, and then the rats were allowed to recover from the surgery in the cage for one day.
Before the drug administration, the membrane of the microdialysis probe was soaked in ethanol and artificial cerebrospinal fluid (aCSF) buffer was perfused through the microdialysis probe at a flow rate of 0.5 μl/min for 1 hour for stabilization.
In addition, the ICO administration group was administered at a dose of 5 mg/kg by filling the drug into the receiving portion 100 of the drug administration device.
The perfusate of the microdialysis probe was collected every 30 minutes for […] between 8 and 24 hours after administration.
The dialysate samples were stored at […] until the time of LC-MS/MS analysis (tandem mass spectrometry).
Blood samples were immediately centrifuged at 10,000 rpm for 10 minutes at 4° C. to recover plasma. In the case of TMZ, blood samples collected after administration were immediately centrifuged and then 10 μl of plasma was acidified with 2 μl of 0.1% formic acid.
Brains were excised 24 hours after administration, and PBS (phosphate buffer saline) corresponding to the weight of each tissue sample was added, followed by homogenization using a homogenizer.
Plasma and homogenized brain tissue samples were stored at […] until LC-MS/MS analysis.
The areas under the curve in plasma (AUCplasma) and interstitial fluid (ISF) concentration-time curves (AUCISF) were determined by noncompartmental analysis using WinNonlin 2.1. Brain concentration (Cbr) in the whole brain at 24 hours was corrected for the plasma volume of the corresponding organ using the Expression below, which was determined using LC-MS/MS.
In the above Expression, Cbr, quant, 24 h is the brain drug concentration (ng/g) at 24 hours quantified by LC-MS/MS, V0 is the plasma volume of the corresponding organ (μl/g), Cplasma, 24 h at 24 hours is the plasma concentration (ng/ml), and the V0 value for the brain was selected as 9.3±1.1 μl/g.
Compared to IV administration, the extent of brain uptake after ICO administration was expressed as brain availability (Fbr), which is similar to systemic bioavailability (F), and was calculated as the ratio of AUCISF, IV and AUCISF, ICO using the Expression below.
In the above Expression, AUCISF,ICO and AUCISF,IV are the areas under the curves in the brain interstitial fluid-time plot (AUCISF) up to 24 hours after ICO administration and IV administration, respectively.

[2] = Near-infrared (NIR) fluorescence imaging of ICG diffusion in the skull after administration through the installed device; format: in vivo, rat; conditions: 24 hours after 50 μl of ICG (500 μg/ml in saline), NIR fluorescence image
Description: Next, the integrity of the drug administration device installed in the skull of the rat was tested by near-infrared (NIR) fluorescence imaging using indocyanine green (IGC).
The diffusion of ICG into the rat skull was observed by the near-infrared fluorescence imaging of the drug administration device installed in the thinned rat skull.
50 μl of ICG (500 μg/ml in saline) was administered to the rat with the drug administration device installed. After 24 hours, the rat was anesthetized, placed in a stereotaxic position, and the scalp was cut. For the ICG-NIR fluorescence imaging, a 780 nm laser with 150 mW output was set at a distance of 80 mm and an angle of 20° from the target through a C-clamp on a Z stand for a laser spot size of 15 mm width and 25 mm length, and fluorescence images were recorded at 1 frame per second using basedcam2 software while NIR light was administered through the 780 nm laser.

[3] = up to 24 h, ICO 5 mg/kg vs IV 0.5 mg/kg

Structure (SMILES) | brain-to-plasma ratio (Kp), ICO administration group relative to IV administration group [1] | AUCISF of the ICO administration group compared with the IV administration group [1, 3] | AUCplasma of the ICO administration group compared with the IV administration group [1, 3] | Cbr (brain drug concentration), ICO administration group relative to IV administration group [1] | ICG signal in the left skull where the drug administration device was installed [2] | ICG signal in the right skull [2] | AUCISF after ICO administration ([1]; ICO 5 mg/kg, brain interstitial fluid, up to 24 h) | ISF concentration after IV administration ([1]; IV 0.5 mg/kg, all time points, brain interstitial fluid) | AUC ratio (%, AUCISF/AUCplasma), ICO administration group relative to IV administration group ([1]; fold higher in ICO than IV group, ICO 5 mg/kg vs IV 0.5 mg/kg)
CN(C)CCCN1c2ccccc2Sc2ccc(Cl)cc21 [CPZ, Chlorpromazine hydrochloride] | 35.3 times | no different | relatively lower | 85.1 times | – | – | – | – | –
[2H]C([2H])(N)C([2H])([2H])C([2H])([2H])C(=O)O [GABA, gamma-aminobutyric acid-d6] | 3.4 times | relatively higher | relatively lower | 3.1 times | – | – | – | – | –
CC1(C)C(/C=C/C=C/C=C/C=C2\N(CCCCS(=O)(=O)O)c3ccc4ccccc4c3C2(C)C)=[N+](CCCCS(=O)(=O)[O-])c2ccc3ccccc3c21 [ICG, indocyanine green] | – | – | – | – | brightly lit | no signal was observed | – | – | –
CC(=O)O[C@H]1C(=O)[C@@]2(C)[C@H]([C@H](OC(=O)c3ccccc3)[C@]3(O)C[C@H](OC(=O)[C@H](O)[C@@H](NC(=O)c4ccccc4)c4ccccc4)C(C)=C1C3(C)C)[C@]1(OC(C)=O)CO[C@@H]1C[C@@H]2O [PTX, paclitaxel] | – | relatively higher | relatively lower | 294.1 times | – | – | 796.55 ng/min/mL | below the limit of detection (LOD) | –
Cc1nc2n(c(=O)c1CCN1CCC(c3noc4cc(F)ccc34)CC1)CCCC2 [RIS, risperidone] | – | relatively higher | relatively lower | – | – | – | – | – | –
CCN(C)C(=O)Oc1cccc([C@H](C)N(C)C)c1.O=C(O)C(O)C(O)C(=O)O [RVG, rivastigmine i-tartrates] | – | relatively higher | – | – | – | – | – | – | –
Cn1nnc2c(C(N)=O)ncn2c1=O [TMZ, temozolomide] | 1.9 times | relatively higher | relatively lower | 3.4 times | – | – | – | – | 3.0 times
